For data set [1] the following is noted: DTA.
The nature of data set [2]: Molar enthalpy of transition or fusion. The settings on record: DSC.

± gives the expanded uncertainty stated by the source.

For `CCCCCCCCCCCCCCCCCCCCCC` [docosane], the Triple point temperature is listed as 318.08 ± 0.39 K in data set [1] (Crystal 1) and 317.22 ± 0.39 K in data set [1] (Crystal 2). Besides, the “Molar enthalpy of transition or fusion” value in data set [2] (Crystal 1) came out at 11.7 ± 0.382 kcal/mol; in data set [2] (Crystal 2) it was 6.92 ± 0.153 kcal/mol.

For the origin of these results see the NIST ThermoML archive (doi:10.1016/j.tca.2013.08.001).
